Patent US20230257758A1, “PLANT METABOLITE-MEDIATED INDUCTION OF BIOFILM FORMATION IN SOIL BACTERIA TO INCREASE BIOLOGICAL NITROGEN FIXATION AND PLANT NITROGEN ASSIMILATION” (The Regents of the University of California, priority 2020, published 2023)

Tests used:
[1] = test system: Gluconacetobacter diazotrophicus; experiment: Microtiter-plate biofilm formation assay (crystal violet staining) with rice root exudates; assay type: cell-based; conditions: for Biofilm formation, comparison of flavones (FIG. 11): 3 days with Oryza sativa root exudates supplemented with indicated concentrations; for Biofilm production (natural flavonoids, FIG. 7): exposed for 3 days to Oryza sativa root exudates supplemented with […] of the indicated compounds; for Biofilm formation in chemical screening (normalized to DMSO control): wild-type rice (Kitaake) root exudate 198 μL + 2 μL of 10 mM compound, 3 days, crystal violet staining
Experimental: FIG. 3. […] Biofilm formation of Glucanoacetobacter diazotrophicus was assessed incubated with wild-type rice (Oryza sativa Kitaake) root exudates supplemented with 2 μl of each of 500 flavonoid and derivated compounds of a chemical library (FL-500, TimTec) and 700 compounds (natural and synthetic) (NPDepo library). Chemical screening was performed in a 96-well plate with each well containing: 198 μL of the Kitaake exudate and 2 μL of the 10 mM compound from the chemical libraries. An equal volume (2 μL) of DMSO was added to each well and served as the negative control. Gluconacetobacter diazotrophicus was added to the final OD600=0.01 to each well and incubated in a shaker at 150 rpm, 28° C. for 3 days before biofilm quantification by crystal violet staining. The value of each well in biofilm quantification was normalized to that of the DMSO control in each plate (DMSO=1). The heatmap was generated by the mean value of 3 biological replicates for each compound.
FIG. 7. Effect of natural flavonoids on biofilm formation in Glucanoacetobacter diazotrophicus. Induction of biofilm production in Gluconacetobacter diazotrophicus exposed to Oryza sativa root exudates supplemented with […] of the indicated compounds. Controls are exudates without compound and exudates with DMSO.
FIG. 11. Effects of Naringenin, Apigenin, Apigenin-7-Glucoside, and Luteolin on biofilm formation on Gluconacetobacter diazotrophicus. Values are the Mean±SD (n=6).
Any of a number of assays can be used to assess plants generated using the present methods, as well as to assess candidate plant molecules (e.g., other flavones) for their ability to upregulate biofilm production and assimilation of N2-fixing bacteria. For example, to confirm that the plants are exuding increased levels of the one or more flavones, root exudates from the plants can be isolated and the quantities and identities of the flavones determined, e.g., using mass spectrometry. In addition, the exudates (or other candidate biofilm-inducing molecules) can be incubated with N2-fixing bacteria, e.g., Glucanoacetobacter diazotrophicus, and the biofilm produced by the bacteria assessed. The biofilm can be quantified, e.g., by incubating the exudate (or candidate molecule or molecules) and bacteria in the wells of a microtiter plate, removing the cultures from the plate, washing the wells, adding a solution of crystal violet, rinsing and drying the plate, and then adding ethanol and measuring absorbance at, e.g., 540 nm. See, e.g. Example 1 and www.jove.com/video/2437/microtiter-dish-biofilm-formation-assay, the entire disclosure of which is herein incorporated by reference.
To assess the effect(s) of different chemicals on biofilm formation in N2-fixing bacteria, we used a published protocol (www.jove.com/video/2437/microtiter-dish-biofilm-formation-assay). Basically, bacteria were grown in a 96-well plate in a rich-nutrient medium at 28° C. The compound to be tested was added and the culture was grown overnight. Plant exudates and 2 μl of the compound were added to the well and the bacteria grown for 3 days under shaking (200 rpm). After 3 days, the planktonic bacterial cultures were discarded and the wells were thoroughly washed with water. A solution of 1% of crystal violet was added to each well of the plate and the plate shaken for 10-15 min at 200 rpm. The plates are rinsed 3-4 times with water (by submerging the plants in a tub of water), shaken vigorously and blotted on a stack of paper towels (to eliminate excess of cells and dye), the microliter plate was placed upside down and air dried. To quantify the amount of biofilm that adhered to the well walls, 200 μl of ethanol were added to each well, the plates shacked at 200 rpm, at 28° C. for 10-15 min. The absorbance of the solution was measured at 540 nm, using ethanol as a blank (FIG. 1). […]

Glucanoacetobacter = experiment: Biofilm formation in suspension of double-labelled (mCherry, gumDpro::GFP) Glucanoacetobacter; assay type: cell-based, Glucanoacetobacter diazotrophicus; conditions: addition of compound to a suspension of Glucanoacetobacter (FIGS. 5A, 5B)
Description: (§1) FIGS. 5A-5C. Effects of the addition of luteolin or apigenin to biofilm formation in Glucanoacetobacter diazotrophicus. FIG. 5A: Effects of the addition of luteolin to biofilm formation in a Glucanoacetobacter diazotrophicus suspension.
The activity of the exudate or of candidate molecules can also be assessed in vivo, e.g., by using transgenic N2-fixing bacteria such as Glucanoacetobacter diazotrophicus that constitutively express a label such as mCherry. The bacteria can also express labeled components of biofilms, e.g., in bacteria transformed with gumDpro::GFP. The double labeling in such bacteria allows the visualization of the bacteria and, independently, the development of biofilm in the presence or absence of the exudate or candidate molecule.
Our results indicated clustering among common moieties, particularly among heterooctacyclic compounds (e.g., Staurosporine) and […] (e.g., luteolin, apigenin) and anthraquinones (e.g. 2H03 and 4G03—Papaverine). (FIG. 4). […] Therefore we assessed the effects of luteolin and apigenin in vivo. First we assessed the formation of chemical-induced formation of biofilm in bacterial cultures. For this, we generated transgenic Glucanoacetobacter constitutively expressing mCherry (transformed with pSEVAGeng-Luc-mCherry) in order to visualize mCherry fluorescent bacteria. Then we transformed the mCherry expressing bacteria with gumDpro::GFP. GumD encodes for components of the bacterial Exopolysacharides (EPS)] in order to visualize GFP-labelled biofilms. Thus the double labelling allowed as to follow the development of biofilm while visualizing the bacteria.

[2] = test system: Glucanoacetobacter diazotrophicus; experiment: Acetylene reduction assay (ARA) for bacterial N2 fixation; assay type: cell-based; conditions: Kitaake rice root exudates and 100 μM, 3 days at 28° C., then acetylene 4 days
Experimental: as §1
FIGS. 12A-12C. Effects of flavones (Naringenin, Apigenin, Apigenin-7-Glucoside) on bacterium N2-fixation. FIG. 12A: Activity was assessed by measuring the conversion of acetylene to ethylene by Gas Chromatography. FIG. 12B: Assimilation of Nitrogen by Kitaake rice plants, incubated with Glucanoacetobacter in the absence (DMSO) or presence of Apigenin. Nitrogen assimilation was assessed by feeding ^15N2 and measuring assimilated inorganic ^15N in leaf tissues after 2 weeks, using Mass Spectroscopy. […]
The N2-fixing activity of the bacteria can be assessed, e.g., using an acetylene reduction assay (ARA), in which bacteria are cultured in the presence of acetylene gas, and the conversion of acetylene to ethylene measured by, e.g., gas chromatography.
To assess the effects of the flavones on bacteria N2 fixation, we used the acetylene reduction assay (ARA), where gas acetylene is added, and the resulting ethylene is measured by Gas Chromatography. […] Ten % of the air in the tube was replaced by acetylene, the cells incubated for 4 days and ethylene was measured by gas chromatography (FIG. 12A). […]

Azoarcus communis = experiment: Luteolin-induced biofilm production in N2-fixing bacteria; assay type: cell-based
Experimental: (§2) FIG. 8. Induction of biofilm production in facultative N2-fixing bacteria.
(§3) FIGS. 9A-9C. Effect of luteolin on biofilm production in Azoarcus sp. CIB (FIG. 9A), Azoarcus communis (FIG. 9B), and Burkholderia vietnamensis (FIG. 9C).
(§4) The effects of luteolin on the induction of biofilm production was tested in a number of N2-fixing bacteria (FIG. 8). While Burkholderia vietnamensis and Azoarcus sp. […] Also the response of the bacteria to luteolin was not uniform; Azoarcus sp.

Azoarcus sp. CIB = experiment: as above; assay type: cell-based
Experimental: as §2, §3, §4

[3] = test system: Burkholderia vietnamensis; experiment: as above; assay type: cell-based
Experimental: as §2, §3, §4

Azospirillum sp. 8510 = experiment: as above; assay type: cell-based
Experimental: as §2, §4

[4] = test system: Herbaspirillum seropedicae; experiment: as above; assay type: cell-based
Experimental: as §2, §4

[5] = test system: Kitaake rice plants, incubated with Glucanoacetobacter; experiment: Assimilation of 15N2-derived nitrogen by rice plants incubated with bacteria; assay type: in vivo, Oryza sativa Kitaake; conditions: rice seedlings in soil with bacteria, 15N2 gas added; versus DMSO control
Experimental: (§5) FIGS. 12A-12C. Effects of flavones (Naringenin, Apigenin, Apigenin-7-Glucoside) on bacterium N2-fixation. FIG. 12A: Activity was assessed by measuring the conversion of acetylene to ethylene by Gas Chromatography. FIG. 12B: Assimilation of Nitrogen by Kitaake rice plants, incubated with Glucanoacetobacter in the absence (DMSO) or presence of Apigenin. Nitrogen assimilation was assessed by feeding ^15N2 and measuring assimilated inorganic ^15N in leaf tissues after 2 weeks, using Mass Spectroscopy. FIG. 12C: Kitaake rice roots incubated with Glucanoacetobacter in the absence (DMSO) or presence of Apigenin.
The genetically modified plants themselves can also be assessed in any of a number of ways. For example, plants can be grown in the presence of fluorescently labeled N2-fixing bacteria, and the adherence of the bacteria to the plant root hairs, either attached to the root surface or present inside the plant tissues, can be determined. The plants can also be assessed by determining the number of tillers and/or the seed yield. In some embodiments, the assimilation of N2 fixed by bacteria in the soil is assessed by, e.g., growing the plants in the presence of ^15N2 gas, and then measuring the level of ^15N assimilated in the plant leaves, e.g., using Mass spectroscopy. […]

[6] = test system: Kitaake rice roots incubated with Glucanoacetobacter; experiment: Microscopy of adherence of fluorescent bacteria to rice roots; assay type: in vivo, Oryza sativa Kitaake; conditions: versus DMSO
Experimental: as §5
The genetically modified plants themselves can also be assessed in any of a number of ways. For example, plants can be grown in the presence of fluorescently labeled N2-fixing bacteria, and the adherence of the bacteria to the plant root hairs, either attached to the root surface or present inside the plant tissues, can be determined. The plants can also be assessed by determining the number of tillers and/or the seed yield. In some embodiments, the assimilation of N2 fixed by bacteria in the soil is assessed by, e.g., growing the plants in the presence of ^15N2 gas, and then measuring the level of ^15N assimilated in the plant leaves, e.g., using Mass spectroscopy.
No bacteria was seen on the control treatments. […]

O=c1cc(-c2ccc(O)cc2)oc2cc(O[C@@H]3O[C@H](CO)[C@@H](O)[C@H](O)[C@H]3O)cc(O)c12 [apigenin-7-O-glucoside]
Biofilm formation, comparison of flavones (FIG. 11) [1]: strongest biofilm induction | Induction of biofilm formation in bacterial suspension (Glucanoacetobacter): showed the induction of biofilm formation | Nitrogen fixation (conversion of acetylene to ethylene, gas chromatography) [2]: promote nitrogen fixation

O=C1C[C@@H](c2ccc(O)c(O)c2)Oc2cc(O)cc(O)c21 [Eriodictyol]
Biofilm production (natural flavonoids, FIG. 7) [1]: Only luteolin induced a significant increase

O=c1cc(-c2ccc(O)c(O)c2)oc2cc(O)cc(O)c12 [luteolin]
Biofilm production (natural flavonoids, FIG. 7) [1]: induced a significant increase in biofilm production | Biofilm formation in chemical screening (normalized to DMSO control) [1]: biofilm inducers | Induction of biofilm formation in bacterial suspension (Glucanoacetobacter): induction of biofilm formation by increasing amounts of luteolin | Luteolin-induced biofilm production (Azoarcus communis): did not show an enhanced biofilm production | Luteolin-induced biofilm synthesis (Azoarcus sp. CIB; Azoarcus sp. CIB): displayed a luteolin-induced biofilm synthesis | Response to luteolin relative to Burkholderia vietnamensis (Azoarcus sp. CIB; Azoarcus sp. CIB versus Burkholderia vietnamensis): lesser response to luteolin than Burkholderia vietnamensis | Luteolin-induced biofilm synthesis [3]: displayed a luteolin-induced biofilm synthesis | Luteolin-induced biofilm production (Azospirillum sp. 8510): did not show an enhanced biofilm production | Luteolin-induced biofilm production [4]: did not show an enhanced biofilm production

O=c1c(O)c(-c2ccc(O)c(O)c2)oc2cc(O)cc(O)c12 [Quercetin]
Biofilm production (natural flavonoids, FIG. 7) [1]: Only luteolin induced a significant increase

O=c1cc(-c2ccc(O)cc2)oc2cc(O)cc(O)c12 [apigenin]
Biofilm formation, comparison of flavones (FIG. 11) [1]: strongest biofilm induction | Biofilm formation, comparison of flavones (FIG. 11) ([1]; listed as Apigenin): induced a larger biofilm production than Luteolin | Biofilm formation in chemical screening (normalized to DMSO control) [1]: biofilm inducers | Induction of biofilm formation in bacterial suspension (Glucanoacetobacter): showed the induction of biofilm formation | Nitrogen fixation (conversion of acetylene to ethylene, gas chromatography) [2]: promote nitrogen fixation | 15N assimilated in the leaves [5]: significant increase in ^15N into Nitrogen compounds | Adherence of bacteria to the root surface and inside the root tissue [6]: Adherence of bacteria to the root surface and inside the root tissue can be seen

O=C1C[C@@H](c2ccc(O)cc2)Oc2cc(O)cc(O)c21 [Naringenin]
Biofilm production (natural flavonoids, FIG. 7) [1]: Only luteolin induced a significant increase

O=c1c(O)c(-c2cc(O)c(O)c(O)c2)oc2cc(O)cc(O)c12 [Myricetin]
Biofilm production (natural flavonoids, FIG. 7) [1]: Only luteolin induced a significant increase
